Reference: ChEMBL document CHEMBL3045660, “Regioselective synthesis of fraxinellone-based hydrazone derivatives as insecticidal agents” (2012)

How the values were obtained:
Type in all cases: functional
Mythimna separata [1] = experiment: Insecticidal activity against pre-third-instar larvae of Mythimna separata (Oriental armyworm) in compound treated fresh corn leaves assessed as corrected mortality at 1 mg/ml measured after 10 days by leaf-dipping method; conditions: 240 h
Mythimna separata [2] = experiment: Insecticidal activity against pre-third-instar larvae of Mythimna separata (Oriental armyworm) in compound treated fresh corn leaves assessed as corrected mortality at 1 mg/ml measured after 35 days by leaf-dipping method; conditions: 840 h
Mythimna separata [3] = experiment: Insecticidal activity against pre-third-instar larvae of Mythimna separata (Oriental armyworm) in compound treated fresh corn leaves assessed as corrected mortality at 1 mg/ml measured after 20 days by leaf-dipping method; conditions: 480 h

Compound | mortality at 1000 µg/mL (Mythimna separata [1]) [%] | mortality at 1000 µg/mL (Mythimna separata [2]) [%] | mortality at 1000 µg/mL (Mythimna separata [3]) [%]
COc1ccc(C(=O)N/N=C/C2=C3C(=O)O[C@@H](c4ccoc4)[C@]3(C)CCC2)cc1 | 37.9 | 50 | 44.4
C[C@@]12CCCC(/C=N/NC(=O)c3ccc([N+](=O)[O-])cc3[N+](=O)[O-])=C1C(=O)O[C@H]2c1ccoc1 | 31 | 53.8 | 40.7
CC1=C2C(=O)O[C@@H](c3ccoc3)[C@]2(C)CC/C1=N\NC(=O)c1ccccc1 | 58.6 | 76.9 | 63
CC1=C2C(=O)O[C@@H](c3ccoc3)[C@]2(C)CC/C1=N\NC(=O)c1ccc([N+](=O)[O-])cc1 | 58.6 | 65.4 | 63
CC1=C2C(=O)O[C@@H](c3ccoc3)[C@]2(C)CC/C1=N\NC(=O)c1cccc(Cl)c1 | 58.6 | 69.2 | 59.3
CC1=C2C(=O)O[C@@H](c3ccoc3)[C@]2(C)CC/C1=N\NC(=O)c1ccncc1 | 24.1 | 50 | 33.3
CC1=C2C(=O)O[C@@H](c3ccoc3)[C@]2(C)CC/C1=N\NC(=O)c1cccs1 | 20.7 | 38.5 | 29.6
CC1=C2C(=O)O[C@@H](c3ccoc3)[C@]2(C)CC/C1=N\NC(=O)CC#N | 34.5 | 61.5 | 33.3
CC1=C2C(=O)O[C@@H](c3ccoc3)[C@]2(C)CC/C1=N\Nc1ccccc1 | 10.3 | 46.2 | 22.2
CC1=C2C(=O)O[C@@H](c3ccoc3)[C@]2(C)CC/C1=N\Nc1ccc([N+](=O)[O-])cc1 | 34.5 | 53.8 | 40.7
CC1=C2C(=O)O[C@@H](c3ccoc3)[C@]2(C)CC/C1=N\Nc1ccccc1[N+](=O)[O-] | 24.1 | 46.2 | 33.3
CC1=C2C(=O)O[C@@H](c3ccoc3)[C@]2(C)CC/C1=N\Nc1c(F)c(F)cc(F)c1F | 27.6 | 50 | 40.7
C[C@@]12CCCC(/C=N/NC(=O)c3ccccc3)=C1C(=O)O[C@H]2c1ccoc1 | 58.6 | 65.4 | 55.6
C[C@@]12CCCC(/C=N/NC(=O)c3ccc([N+](=O)[O-])cc3)=C1C(=O)O[C@H]2c1ccoc1 | 37.9 | 61.5 | 48.1
C[C@@]12CCCC(/C=N/NC(=O)c3cccc(Cl)c3)=C1C(=O)O[C@H]2c1ccoc1 | 44.8 | 53.8 | 40.7
C[C@@]12CCCC(/C=N/NC(=O)c3ccncc3)=C1C(=O)O[C@H]2c1ccoc1 | 55.2 | 73.1 | 66.7
C[C@@]12CCCC(/C=N/NC(=O)c3cccs3)=C1C(=O)O[C@H]2c1ccoc1 | 24.1 | 34.6 | 29.6
C[C@@]12CCCC(/C=N/NC(=O)CC#N)=C1C(=O)O[C@H]2c1ccoc1 | 55.2 | 69.2 | 66.7
C[C@@]12CCCC(/C=N/Nc3ccccc3)=C1C(=O)O[C@H]2c1ccoc1 | 27.6 | 53.8 | 44.4
C[C@@]12CCCC(/C=N/Nc3ccc([N+](=O)[O-])cc3)=C1C(=O)O[C@H]2c1ccoc1 | 20.7 | 38.5 | 14.8
C[C@@]12CCCC(/C=N/Nc3ccccc3[N+](=O)[O-])=C1C(=O)O[C@H]2c1ccoc1 | 13.8 | 50 | 37
C[C@@]12CCCC(/C=N/Nc3c(F)c(F)cc(F)c3F)=C1C(=O)O[C@H]2c1ccoc1 | 37.9 | 61.5 | 40.7
Cc1cccc(C(=O)N/N=C/C2=C3C(=O)O[C@@H](c4ccoc4)[C@]3(C)CCC2)c1 | 41.4 | 53.8 | 44.4
C[C@@]12CCCC(C=O)=C1C(=O)O[C@H]2c1ccoc1 [3-FORMYLFRAXINELLONE] | 17.2 | 34.6 | 25.9
CC1=C2C(=O)O[C@@H](c3ccoc3)[C@]2(C)CCC1 [FRAXINELLONE] | 41.4 | 53.8 | 40.7
CC1=C2C(=O)O[C@@H](c3ccoc3)[C@]2(C)CCC1=O [FRAXINELLONONE] | 48.3 | 57.7 | 48.1
CC(=O)O[C@@H]1C[C@H](O)[C@@]23CO[C@@H](O)[C@]1(C)[C@@H]2C[C@@H](O)[C@]1(C)[C@@H]3C(=O)[C@H](OC(C)=O)[C@@]2(C)[C@H](c3ccoc3)C[C@H]3O[C@]321 [TOOSENDANIN] | 24.1 | 53.8 | 33.3
